Laboratory results published in doi:10.1101/2025.07.07.663444v1, “Antifungal therapeutic potential of Candida albicans Fun30: screening and validation of novel inhibitors against Candida albicans” (biorxiv, 2025).

Experiments:
[1] = target: T1, CaFun30-c334 (Candida albicans, UniProt A0A1D8PTJ0); experiment: biolayer interferometry (Octet R8, Ni-NTA sensor, protein immobilised); type: binding; details: PBS pH 7.4, 2 mM beta-mercaptoethanol; 1:1 model
T1 construct: gene FUN30; C-terminal fragment (RecA-like domain 2, motifs IV-VI, no ATPase activity), probably the last 334 residues; pCOLD I vector (N-terminal His tag implied), E. coli BL21(DE3) Rosetta, Ni-NTA purified
T1 sequence (A0A1D8PTJ0 764-1097): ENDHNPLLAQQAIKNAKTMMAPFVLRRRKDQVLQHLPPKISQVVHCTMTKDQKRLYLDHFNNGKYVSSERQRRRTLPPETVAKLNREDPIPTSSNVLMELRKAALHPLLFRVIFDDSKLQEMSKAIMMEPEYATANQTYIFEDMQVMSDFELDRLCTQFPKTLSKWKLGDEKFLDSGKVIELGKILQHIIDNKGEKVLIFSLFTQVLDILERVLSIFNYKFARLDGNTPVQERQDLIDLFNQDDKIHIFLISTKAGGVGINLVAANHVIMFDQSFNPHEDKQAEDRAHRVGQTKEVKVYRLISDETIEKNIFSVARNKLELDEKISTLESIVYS

[2] = target: T2, CaFun30 (Candida albicans, UniProt A0A1D8PTJ0); experiment: as above; type: binding; details: PBS pH 7.4, 2 mM beta-mercaptoethanol; 1:1 model
T2 construct: gene FUN30; full length, cloned NheI/XhoI in pET21c(+), expressed in E. coli BL21(DE3) Rosetta, Ni-NTA purified
T2 sequence (A0A1D8PTJ0 1-1097): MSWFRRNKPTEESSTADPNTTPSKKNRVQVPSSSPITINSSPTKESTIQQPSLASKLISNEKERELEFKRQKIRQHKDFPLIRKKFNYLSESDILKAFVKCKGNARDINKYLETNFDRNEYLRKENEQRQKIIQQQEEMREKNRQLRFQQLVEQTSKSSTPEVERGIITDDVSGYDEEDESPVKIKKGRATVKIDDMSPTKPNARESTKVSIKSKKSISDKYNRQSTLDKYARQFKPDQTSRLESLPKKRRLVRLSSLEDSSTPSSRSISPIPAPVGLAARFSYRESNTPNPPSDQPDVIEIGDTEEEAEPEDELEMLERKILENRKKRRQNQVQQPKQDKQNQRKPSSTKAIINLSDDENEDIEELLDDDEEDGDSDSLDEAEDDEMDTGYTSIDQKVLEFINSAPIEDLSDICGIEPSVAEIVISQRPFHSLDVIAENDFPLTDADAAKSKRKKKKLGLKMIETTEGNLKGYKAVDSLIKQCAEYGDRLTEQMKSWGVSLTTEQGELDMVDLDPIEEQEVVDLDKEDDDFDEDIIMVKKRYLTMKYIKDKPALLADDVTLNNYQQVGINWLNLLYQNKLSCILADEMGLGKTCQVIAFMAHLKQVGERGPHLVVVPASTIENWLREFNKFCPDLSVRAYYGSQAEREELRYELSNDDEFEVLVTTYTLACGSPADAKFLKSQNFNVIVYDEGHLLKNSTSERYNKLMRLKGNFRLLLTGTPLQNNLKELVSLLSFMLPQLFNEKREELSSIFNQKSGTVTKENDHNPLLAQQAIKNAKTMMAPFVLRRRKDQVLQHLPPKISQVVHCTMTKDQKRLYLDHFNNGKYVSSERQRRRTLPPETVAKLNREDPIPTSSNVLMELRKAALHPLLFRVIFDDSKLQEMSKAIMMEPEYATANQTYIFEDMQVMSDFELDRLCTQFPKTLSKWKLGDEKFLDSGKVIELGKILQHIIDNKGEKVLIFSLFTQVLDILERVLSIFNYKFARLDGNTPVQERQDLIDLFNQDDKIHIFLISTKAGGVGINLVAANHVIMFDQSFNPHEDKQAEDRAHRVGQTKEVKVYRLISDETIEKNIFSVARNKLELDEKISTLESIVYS

## CCc1cc2c(=O)c(-c3ccc(F)cc3)c(C)oc2cc1OCc1ccccc1 [F1067-0218]
[1]
  Kd: 18 µM
[2]
  Kd: 125 µM

## Cc1nnc2sc(SCC(=O)Nc3ccc(Cl)cc3)nn2c1=O [F1853-0039]
[1]
  Kd: 0.87 µM
[2]
  Kd: 0.6 µM

## Cc1ccc(NC(=O)CSc2nc(C(F)(F)F)cc(=O)[nH]2)cc1Cl [F2716-0594]
[1]
  Kd: 25.1 µM
[2]
  Kd: 680 µM
